Laboratory results from patent US9975906B2, “Tricyclic heterocycle derivatives having HIV replication inhibitory effect” (Shionogi & Co., Ltd., priority 2014, dated 2018).

Columns and labels:
[1] = molecular target: T1, CYP2D6 (Homo sapiens, UniProt P10635); assay: CYP Inhibition Assay (dextromethorphan O-demethylation); assay type: in vitro ADME; settings: pooled human hepatic microsome, 5 μmol/L dextromethorphan, 15 minutes, 37° C.
T1 construct: enzyme, pooled human hepatic microsome 0.2 mg protein/mL; from tissue
Experimental: (§1) Using commercially available pooled human hepatic microsome, and employing, as markers, 7-ethoxyresorufin O-deethylation (CYP1A2), tolbutamide methyl-hydroxylation (CYP2C9), mephenytoin 4'-hydroxylation (CYP2C19), dextromethorphan O-demethylation (CYP2D6), and terfenadine hydroxylation (CYP3A4) as typical substrate metabolism reactions of human main five CYP enzyme forms (CYP1A2, 2C9, 2C19, 2D6, 3A4) an inhibitory degree of each metabolite production amount by a test compound was assessed. […] After the centrifugation at 3000 rpm for 15 minutes, resorufin (CYP1A2 metabolite) in the supernatant was quantified by a fluorescent multilabel counter and tolbutamide hydroxide (CYP2C9 metabolite), mephenytoin 4' hydroxide (CYP2C19 metabolite), dextrorphan (CYP2D6 metabolite), and terfenadine alcohol (CYP3A4 metabolite) were quantified by LC/MS/MS. A reaction system containing only DMSO which is a solvent for dissolving a drug was adopted as a control (100%), and the remaining activity (%) was calculated, then IC50 was calculated by reverse presumption with a logistic model using a concentration and an inhibition rate.

[2] = molecular target: T2, CYP3A4 (Homo sapiens, UniProt P08684); assay: CYP Inhibition Assay (terfenadine hydroxylation); assay type: in vitro ADME; settings: pooled human hepatic microsome, 1 μmol/L terfenedine, 15 minutes, 37° C.
T2 construct: enzyme, pooled human hepatic microsome 0.2 mg protein/mL; from tissue
Experimental: as §1

[3] = molecular target: T3, CYP2C19 (Homo sapiens, UniProt P33261); assay: CYP Inhibition Assay (mephenytoin 4'-hydroxylation); assay type: in vitro ADME; settings: pooled human hepatic microsome, 50 μmol/L S-mephenytoin, 15 minutes, 37° C.
T3 construct: enzyme, pooled human hepatic microsome 0.2 mg protein/mL; from tissue
Experimental: as §1

[4] = Metabolism Stability Test; assay type: in vitro ADME; settings: compound concentration 0.5 μmol/L, human liver microsomes, NADPH, 37° C., 30 minutes
Experimental: Commercially available pooled human hepatic microsomes and a test compound were reacted for a constant time, then a remaining rate was calculated by comparing a reacted sample and an unreacted sample, thereby a degree of metabolism of the test compound in liver was assessed. A reaction was performed (oxidative reaction) at 37° C. for 0 minute or 30 minutes in the presence of 1 mmol/L NADPH in 0.2 mL of a buffer (50 mmol/L Tris-HCl, pH 7.4, 150 mmol/L potassium chloride, 10 mmol/L magnesium chloride) containing 0.5 mg protein/mL of human liver microsomes. After the reaction, 50 μL of the reaction solution was added to 100 μL of a methanol/acetonitrile=1/1 (v/v), mixed and centrifuged at 3000 rpm for 15 minutes. The test compound in the supernatant was quantified by LC/MS/MS, and a remaining amount of the test compound after the reaction wad calculated, letting a compound amount at 0 minute reaction time to be 100%. Hydrolysis reaction was performed in the absence of NADPH and glucuronidation reaction was in the presence of 5 mM UDP-glucuronic acid in place of NADPH, followed by similar operations. (Result) The residual rate of the compound concentration 0.5 μmol/L in the oxidation reaction was shown below.

[5] = system: HIV (HTLV-IIIB strain); assay: HIV Replication Inhibition Assay; assay type: cell-based; settings: Human immunodeficiency virus 1, MT4, 96 h, MT-4 cells, cultured four days, MTT, concentration at which cell cytotoxicity by virus is inhibited 50%
Experimental: HIV (HTLV-IIIB strain) persistent infected human T cell strain Molt-4 clone 8 was cultured in 10% Fetal Bovine Serum-containing RPMI-1640 medium and the supernatant was filtered, then the virus titer was measured and the solution was stored at −80° C. Each anti-human immunodeficiency virus active substance was diluted with the above cultured medium to the designated concentration, which was dispensed into 96 well micro plate by 50 μL. Next, a MT-4 cell suspended liquid was dispensed by 100 μL (2.5×10^4 cells), then the above HIV-containing supernatant diluted with the above cultured medium was added thereto by 50 μl (60 pfu (plaque forming unit)).
The obtained mixture was cultured at 37° C. in CO2 incubator for four days, then 3-(4,5-dimethylthiazole-2-yl)-2,5-diphenyltetrazolynium bromide (MTT) 5 mg/mL in PBS was added to each well by 30 μL, followed by 1 hr-cultivation. In this step, as formazan was precipitated by reduction of MTT in living cells, the cell supernatant was removed from all was by 150 μL, then a 150 μL of solution (10% Triton X-100 and 0.4% (v/v)-HCl containing isopropanol) was added thereto, followed by shaking with a plate mixer, to elute formazan. The formazan was measured with a microreader at OD: 560 nm and 690 nm (reference wavelength) and the result was compared with the reference. EC50 means the compound concentration at which cell cytotoxicity by virus is inhibited 50%.

T1 sequence (P10635 whole entry): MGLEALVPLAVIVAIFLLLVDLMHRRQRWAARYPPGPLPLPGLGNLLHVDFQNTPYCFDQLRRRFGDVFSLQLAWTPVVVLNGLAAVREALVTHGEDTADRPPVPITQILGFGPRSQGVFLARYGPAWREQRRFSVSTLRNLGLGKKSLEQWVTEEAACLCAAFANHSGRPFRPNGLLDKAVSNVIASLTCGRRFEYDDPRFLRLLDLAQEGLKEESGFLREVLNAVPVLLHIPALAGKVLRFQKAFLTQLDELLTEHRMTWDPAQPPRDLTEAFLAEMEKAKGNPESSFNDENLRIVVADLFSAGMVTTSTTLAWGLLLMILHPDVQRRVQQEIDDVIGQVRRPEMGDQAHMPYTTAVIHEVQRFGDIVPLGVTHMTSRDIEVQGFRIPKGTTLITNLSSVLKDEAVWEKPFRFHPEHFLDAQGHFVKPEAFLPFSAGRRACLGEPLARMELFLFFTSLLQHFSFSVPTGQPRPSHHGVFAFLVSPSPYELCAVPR
T3 sequence (P33261 whole entry): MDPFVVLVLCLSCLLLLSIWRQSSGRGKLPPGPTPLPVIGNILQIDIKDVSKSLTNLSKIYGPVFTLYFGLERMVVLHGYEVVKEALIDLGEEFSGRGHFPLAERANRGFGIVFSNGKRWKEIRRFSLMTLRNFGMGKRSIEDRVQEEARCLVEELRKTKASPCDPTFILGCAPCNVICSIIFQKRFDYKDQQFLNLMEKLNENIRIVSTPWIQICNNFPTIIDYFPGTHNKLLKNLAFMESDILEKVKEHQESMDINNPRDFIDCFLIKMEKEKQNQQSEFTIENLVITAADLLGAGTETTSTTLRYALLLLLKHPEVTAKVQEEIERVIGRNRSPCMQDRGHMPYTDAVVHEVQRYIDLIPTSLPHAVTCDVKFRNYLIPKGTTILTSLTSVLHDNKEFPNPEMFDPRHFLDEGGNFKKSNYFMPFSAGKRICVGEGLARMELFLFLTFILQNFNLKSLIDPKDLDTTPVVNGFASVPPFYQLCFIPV
T2 sequence (P08684 whole entry): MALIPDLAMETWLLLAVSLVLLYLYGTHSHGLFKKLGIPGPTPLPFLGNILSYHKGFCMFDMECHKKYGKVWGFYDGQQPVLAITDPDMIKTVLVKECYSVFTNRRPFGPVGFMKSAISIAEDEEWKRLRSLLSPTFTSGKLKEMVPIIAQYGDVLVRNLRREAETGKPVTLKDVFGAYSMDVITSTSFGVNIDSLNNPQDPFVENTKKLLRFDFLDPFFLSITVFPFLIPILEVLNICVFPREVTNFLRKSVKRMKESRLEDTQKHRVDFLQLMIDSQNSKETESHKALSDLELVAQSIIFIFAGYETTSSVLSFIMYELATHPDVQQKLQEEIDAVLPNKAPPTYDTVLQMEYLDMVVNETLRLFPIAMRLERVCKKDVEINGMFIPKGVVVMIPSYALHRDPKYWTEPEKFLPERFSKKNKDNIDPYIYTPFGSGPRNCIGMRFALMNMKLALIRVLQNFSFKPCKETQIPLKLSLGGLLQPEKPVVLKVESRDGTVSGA

Cc1ccc(-c2c([C@H](OC(C)(C)C)C(=O)O)c(C)c3c4c2cc(-c2ccnc(-c5ccc6c(cnn6C)c5)c2)n4CCN3CCN(C)C)cc1 [Compound I-034]
IC50 [1]: > 20 µM
IC50 [2]: > 20 µM
IC50 [3]: > 20 µM
residual rate in the oxidation reaction [4]: > 99.9%
EC50 [5]: 0.0024 µM
